Measured values as given in patent US8957022B2, “Multimeric tie 2 agonists and uses thereof in stimulating angiogenesis” (Sunnybrook Health Sciences Centre, priority 2006, dated 2015).

Key:
[1] = test system: B6.Cg-m(+/+)Lepr(db)/J (db/db) mice; experiment: Excisional wound healing in diabetic mice, topical application; format: in vivo, mouse
Description: Pathogen free, nine week old B6.Cg-m(+/+)Lepr(db)/J (db/db) mice were purchased from Jackson Laboratories. Circular, full excisional, 6 mm diameter wounds were made, according to animal committee approval guidelines, equal distant apart on the dorsal side of the mice. Various factors were suspended in sterile Intrasite Topical Gel (Smith and Nephew) at noted concentrations. Treatments were as follows: Vehicle n=8, bFGF (10 μg/ml) n=8, clustered Vasculotide (20 nM) n=4, clustered Vasculotide (5 nM) n=4. Preparations were applied at day 0 (time of wounding), day 2, 4 and 6. Standardized images were taken on days 0, 2, 4, 6 and 7 using a Canon EOS digital Rebel camera. Image J (NIH) was used to manually outline wound perimeter from which total pixel counts (wound area) were determined. Mice were sacrificed on day 7 and full wound beds including margin were excised and fixed in 4% PFA. Wounds were cut in half at the widest point and each half was prepared for either paraffin or frozen sections. Wax sections were processed according to standard protocols for H&E and Masson's Trichrome stain. Images were captured using a Leica DMLS compound light microscope and Pixel Link camera at 5× and 20×. Student's t test was used to test the statistical significance.
For histological scoring, sections were fixed in 4% paraformaldehyde, embedded in paraffin and sectioned and stained with H & E and Masson's trichrome. Sections were evaluated by a pathologist for re-epithelialization, granulation tissue formation, and inflammation, with criteria used for scoring skin as follows:
• 0—none • 1—minimal (0-20% regrowth from wound margins) • 2—mild (25% to 50% regrowth) • 3—moderate (>50% regrowth, up to 100% but not >2 cells thick along length) • 4—complete regrowth (epithelium>1 cell thick along length, keratinized) Granulation Tissue (GT) and Neovascularization: • 0—none • 1—minimal (1-3 small, isolated islands of GT at margins of defect) • 2—mild (multifocal, patchy islands of GT underlying tissue defect, <10 new blood vessels) • 3—moderate (locally extensive bands of GT underlying length of defect) • 4—marked (dense bands of GT at margins and underlying length of defect with collagen fibrils and numerous blood vessels) Inflammation (within Defect): • 0—none • 1—minimal (a few scattered neutrophils at margins of defect) • 2—mild (multifocal aggregates of up to 5 neutrophils underlying defect) • 3—moderate (multifocal aggregates of up to 10 neutrophils and occasional macrophages, minimal to mild edema) • 4—marked (locally extensive, dense neutrophilic infiltrates with lesser numbers of macrophages, mild-moderate edema)

[2] = test system: CD1 mice; experiment: Matrigel plug angiogenesis assay; format: in vivo, mouse; settings: for Vessel growth in plugs (confocal analysis): FITC lectin
Description: To further examine the in vivo angiogenic potential of Vasculotide, a Matrigel assay was performed. More specifically, growth factor reduced Matrigel (BD Biosciences) was impregnated with either clustered Vasculotide or one of several different control factors. These Matrigel samples were injected subcutaneously into the flank region of 3 month old CD1 mice. 14 days post implantation and immediately prior to sacrifice, FITC lectin (100 μg) was injected IV and allowed to circulate for 10 minutes, to facilitate vessel identification and quantification. Plugs were surgically resected and fixed in 4% paraformaldehyde (PFA) for 16 h. Images of vascular topology were taken using a Zeiss dissecting microscope at 4× magnification. Upon fixing, all plugs were whole mount stained with anti-Sma1-Cy3. Plugs were analyzed on a Zeiss Axiovert 100 M confocal microscope (Carl Zeiss) for three dimensional image reconstruction and photos were processed using LSM Image Browser and Adobe Photoshop 7.0. Morphometric quantification of vessel characteristics was performed by skeletonizing confocal image projections with Image Processing Tool Kit 5.0 (IPTK 5.0). Student's t test was used to test the statistical significance with a 95% confidence interval. All experiments were performed with three replicates each, with at least 5 random image stacks.
To more fully address and assign quantitative vessel parameters to the different treatment groups, the plugs were fixed and interrogated with laser confocal microscopy analysis combined with post processing image analysis (Image Processing Tool Kit 5.0, Reindeer Graphics, N.C.). Vessel parameters, including length, number and branch points (nodes) were quantified on at least six representative fields. Statistical analysis was performed by way of unpaired Student's t test. Bar graphs of the number of vessels, vessel length and number of nodes, for each treatment group, are shown in FIGS. 3A, 3B and 3C, respectively. It is noted that poor perfusion of FITC-lecithin into mice harboring 20 nM clustered Vasculotide plus VEGF plugs prevented statistical analysis, therefore bars are the mean of two separate fields. All other bars shown represent mean+/−SD.
Ang 1 has been reported to potentiate the recruitment of myogenic support cells (Suri, C. et al. (1996) Cell 87:1171-1180) and inhibit VEGF induced vascular permeability through mechanisms that are not well understood (Thurston, G. et al. (2000) Nat. Med. 6:460-463). To determine if Vasculotide, like Ang 1, was capable of initiating pericyte recruitment, whole mount immunofluorescence was performed against smooth muscle actin 1 (Sma1). […] Sma 1 staining was tightly associated with the exterior of the vessels and was enriched on larger vessels.

[3] = test system: HUVEC; experiment: Serum withdrawal-induced cell death, Cell Death ELISA; format: cell-based, human; settings: F12 plus 0.1% FBS, 16 hours; clustered Vasculotide at 500 pM (p=0.002) vs non-treated cells
Description: Based on the fact that clustered Vasculotide strongly activates the anti apoptotic protein AKT (see Example 3), the ability of Vasculotide to protect ECs from serum withdrawal-induced death was examined. To do so, HUVEC were maintained in F12 media plus 0.1% FBS for 16 hours in the presence of various concentrations of unclustered or clustered Vasculotide, followed by analysis of cell apoptosis via cell death ELISA. Analysis of apoptosis was performed using Cell Death ELISA Plus (Roche) according to manufacturers' specifications. The results are shown in FIG. 2A, in which values were normalized to basal levels of cell death for HUVECs maintained in full 10% FBS, growth factor supplemented F12 media. The results shown represent the mean of three replicates plus or minus 1 SD. Student's T-test was used for statistical analysis with P value indicated.

[4] = test system: HUVEC; experiment: Modified Boyden chamber migration assay; format: cell-based, human; settings: for Chemotactic cell migration versus no treatment: 4 hours, clustered Vasculotide 2 nM and 10 nM
Description: To test if Vasculotide, like Ang 1, was capable of promoting these processes, the effect of Vasculotide on EC migration was tested using a modified Boyden chamber assay. HUVEC were seeded at a density of 8.4×10^4 cells in 500 μl of F12 growth media plus 0.1% FBS in the upper chamber of an 8 μm pore size modified Boyden chamber (Falcon). 500 μl of F12 media plus 0.1% FBS plus various growth factors (Ang 1 (R& D Systems), unclustered or clustered Vasculotide, VEGF (R&D Systems) or clustered Vasculotide in combination with VEGF) or controls were placed in the bottom chamber. Cells were allowed to migrate for 4 hours in a 37° C., 5% CO2 incubator. Nonmigrating cells were scraped off, and filters were fixed in 100% methanol for 5 minutes, stained with Harris' Hematoxylin (BDH) for 10 minutes and washed twice with tap water for 3 minutes each. Filters were then mounted using Aquapolymount mounting medium. Cells that had migrated more than 50% of the way through the pore were scored as positive for migration.
Student's t test was used to test the statistical significance with a 95% confidence interval. Stimulations were performed in triplicate and migrating cells in 6 microscopic fields per replicate were counted.

Row | Substance | Benefit at lower concentration ([1]; 5 nM versus 20 nM) | Inflammation (histological score) ([1]; 5 nM, p=0.0979) | Regranulation and neovascularization (histological score) ([1]; 20 nM and 5 nM p=0.0006) | Wound margin (pixel counts) at day 2 ([1]; 20 nM topical, p=0.05, n=4) | Re-epithelialization (histological score) ([1]; 20 nM, p=0.0004 and 5 nM, p=0.029) | Inflammation (histological score) ([1]; 20 nM, p=0.034) | Overall collagen deposition (Masson's Trichrome) ([1]; both concentrations, compared to vehicle and bFGF) | Lymphangiogenesis (podoplannin-positive vessels) ([1]; immunohistochemistry) | PECAM1- and Pan EC-positive vessels within the granulation tissue ([1]; immunohistochemistry, 5 nM and 20 nM) | Margin closure for the duration of the assay ([1]; topical, days 0-7) | Nature of vessels (arborization, tortuosity) ([2]; 14 days post implantation) | Vessel growth in plugs (confocal analysis) ([2]; 14 days post implantation) | Angiogenic response in the membranous capsule surrounding the plugs ([2]; 14 days post implantation, subcutaneous) | Smooth muscle actin 1 (Sma1) staining, pericyte recruitment ([2]; whole mount immunofluorescence) | Apoptosis / survival after serum withdrawal [3] | Chemotactic cell migration versus no treatment [4] | Migration compared with VEGF or Ang 1 ([4]; VEGF 100 ng/ml, Ang 1 500 ng/ml (FIG. 2B legend)) | Granulation tissue production (H&E and MT staining) ([1]; day 7 wound sections)
1 | clustered Vasculotide: Vasculotide clustered with avidin in a 4:1 ratio, an obligate tetrameric compound | seemed to offer more benefit | not significantly different from vehicle | profound increases in regranulation and neovascularization | Significant decreases in wound margin | delayed re-epithelialization | only slightly increased | dramatically increased | not accompanied by an increase in lymphangiogenesis | dramatic increases in the number of PECAM1- and Pan EC-positive vessels | continued at an accelerated pace | clear, large, well arborized vessels | robust induction of angiogenesis | distinct and robust angiogenic response | significant increase in overall Sma 1 staining | statistically significant decrease in apoptosis | significant increases in chemotactic cell migration | not significantly different than that seen in samples treated with VEGF or Ang 1 | –
2 | Vasculotide: biotinylated T7 peptide-PEG: Cys-His-His-His-Arg-His-Ser-Phe (SEQ ID NO: 2) conjugated to EZ-link-PEO-maleimide-biotin | – | – | – | – | – | – | – | – | – | – | – | no significant vessel growth | – | – | no effect on survival | did not promote migration above that seen in the untreated sample | – | dramatic increases in granulation tissue production
